Patent publication US5614539A, “Urea compounds which are useful as platelet aggregation inhibitors” (G. D. Searle & Co., priority 1995, dated 1997)

Test system: Dog PRP (platelet aggregation)
Experiment: In-Vitro Platelet Aggregation in PRP (ADP-induced)
Assay type: cell-based
Conditions: Canis lupus familiaris; dog platelet-rich plasma; ADP 50 um final concentration; 1 minute preincubation at 37° C.; read-out: Dog PRP IC50 or % Inh.
Protocol: In-Vitro Platelet Aggregation in PRP
Healthy male or female dogs were fasted for 8 hours prior to drawing blood; then 30 ml whole blood was collected using a butterfly needle and 30 cc plastic syringe with 3 ml of 0.129M buffered sodium citrate (3.8%). The syringe was rotated carefully as blood was drawn to mix the citrate. Platelet-rich plasma (PRP) was prepared by centrifugation at 975×g for 3.17 minutes at room temperature allowing the centrifuge to coast to a stop without braking. The PRP was removed from the blood with a plastic pipette and placed in a plastic capped, 50 mL Corning conical sterile centrifuge tube which was held at room temperature. Platelet poor plasma (PPP) was prepared by centrifuging the remaining blood at 2000×g for 15 minutes at room temperature allowing the centrifuge to coast to a stop without braking. The PRP was adjusted with PPP to a count of 2-3×10^8 platelets per mL. 400 uL of the PRP preparation and 50 uL of the compounds solution to be tested or saline were preincubated for 1 minute at 37° C. in a […].). 50 uL of adenosine 5' diphosphate (ADP) (50 um final concentration) was added to the cuvettes and the aggregation was monitored for 1 minute. […] Results are calculated as follows: Percent of control=[(maximal OD minus initial OD of compound) divided by (maximal OD minus initial OD of control saline)]×100. […]

Structure (SMILES) | IC50 [µM]
N=C(N)NCCCCCCCNC(=O)NC(CC(=O)O)c1cccnc1 (stereo not drawn) [Example 2, β-[[[[7-[[aminoiminomethyl]amino]heptyl]amino]carbonyl]amino]-3-pyridinepropanoic acid] | 0.8
N=C(N)NCCCCCCCNC(=O)N[C@@H](CC(=O)O)C(=O)N[C@@H](Cc1ccccc1)C(=O)O [Example 4, N-[N-[[[[7-[[aminoiminomethyl]amino]heptyl]amino]carbonyl]amino]-L-α-aspartyl]-L-phenylalanine] | 1.9
